Test results from US10850134B2, “Method and kit for home controlled ovarian stimulation for in vitro fertilization” (priority 2019, dated 2020).
“And” between values parts separate entries of the source, which are not always exact repeats. Equal values may be shown once.

Experiments:
[1] = test system: Luteinizing hormone (LH) blood level; assay: LH blood level in patients on GnRH antagonist protocol with ganirelix acetate injections (Example 1); assay type: in vivo, female patients
Procedure: Five female patients were treated with a GnRH antagonist protocol requiring injections of medications.
One patient, patient no. 1, was injected with 150 Units of FSH on days 3 to 12; half a syringe of 150 mcg/0.5 mL of ganirelix acetate on days 11 and 12; and 50 mg of clomiphene citrate on days 3 to 12; and 2.5 mg of letrozole on days 3 to 7. Luteinizing hormone (LH) blood level was 4.3 mIU/mL on day 10 and dropped to 2 mIU/mL on day 12.
A second patient, patient no. 2, was injected with 75 Units of FSH on days 4 to 12 and 150 Units on day 13; half a syringe of 150 mcg/0.5 mL of ganirelix acetate on days 11 to 13; 50 mg of clomiphene citrate on days 10 to 12, and 2.5 mg of letrozole on days 3 to 7. Luteinizing hormone (LH) blood level was 12.0 mIU/mL on day 11 and dropped to 6.3 mIU/mL on day 13.
Three patients, numbered 3 to 5, were injected with 75, 150 and 225 Units of FSH, respectively, on days 4 to 12 and one third a syringe of 150 mcg/0.5 mL of ganirelix acetate on days 11 to 13. Patient no. 3 received 50 mg of clomiphene citrate on days 4 to 12, and 2.5 mg of letrozole on days 4 to 8. Patient no. 4 received 100 mg of clomiphene citrate and 2.5 mg of letrozole on days 4 to 8, and 50 mg of clomiphene citrate on days 9 to 11. Patient no. 5 received no clomiphene citrate or letrozole. Luteinizing hormone (LH) blood level was 12.0, 18.0 and 14.6 mIU/mL, respectively, on day 10 and dropped to 4.9, 16.0 and 14.1 mIU/mL, respectively, on day 12.
(§1) Table 2 below provides a comparison of the efficacy of conventional Ganirelex/Cetrotide injectables treatment for IVF in the five representative patients from Example 1 with the home controlled ovarian hyperstimulation method described herein in the five representative patients from Example 2.

[2] = test system: Luteinizing hormone (LH) blood level; assay: LH blood level in patients on home controlled ovarian hyperstimulation method with vaginal elagolix (Example 2); assay type: in vivo, female patients; details: for Luteinizing hormone (LH) blood level: 50 mg elagolix vaginal suppository days 9 and 11
Procedure: Five female patients were treated with the controlled ovarian hyperstimulation method described herein using the elagolix pill (vaginal route) instead of the conventional Ganirelex/Cetrotide injectables. On day 3 of the patient's menstrual cycle, the patient orally took 100 mg (two 50 mg oral tablets) of clomiphene citrate and 5 mg (two 2.5 mg oral tablets) of letrozole. The patient then took the same oral dosages of clomiphene citrate and letrozole daily on each of days 4-7 of the patient's menstrual cycle. On day 8 of the patient's menstrual cycle, the patient orally took only 100 mg (two 50 mg oral tablets) of clomiphene citrate, and stopped the letrozole. On day 9 of the menstrual cycle, the patient orally took 100 mg (two 50 mg oral tablets) of clomiphene citrate and inserted vaginally a 50 mg tablet of elagolix as a vaginal suppository. On day 10 of the menstrual cycle, the patient orally took only 100 mg (two 50 mg oral tablets) of clomiphene citrate. On day 11 of the menstrual cycle, the patient orally took 100 mg (two 50 mg oral tablets) of clomiphene citrate and inserted vaginally a 50 mg tablet of elagolix as a vaginal suppository. Also, on day 11, the patient took a home ovulation test in the morning (9:00 am) and in the evening (9:00 pm). For the patients whose ovulation tests were not positive, then on days 12 and 13, the patient took 2 doses of leuprorelin as a nasal spray (1:40 dilution in saline) as follows. On day 12, after taking a home ovulation test at 9:00 am, 2 puffs (sprays) of the nasal spray were self-administered by the patient per nostril. After 12 hours of waiting, at 9:00 pm the patient took a home urine ovulation test and then self-administered 2 more puffs (sprays) of the nasal spray per nostril. On day 13, the patient repeated the procedure of day 12. Luteinizing hormone (LH) blood level was 7.0 mIU/mL on day 11 and dropped to 1.0 mIU/mL on day 13.
as §1

[3] = Example 1, conventional injectables, individual patients 1-5, blood
[4] = Example 2, vaginal elagolix suppository 50 mg days 9 and 11, individual patients 1-5, blood

Compound: ganirelix acetate
- % Drop in blood LH hormone level ([1]; Example 1, conventional injectables, individual patients 1-5): 53.5% and 47.5% and 59.2% and 11.1% and 3.4%
- LH blood hormone level (mIU/mL) AFTER medication intake [1, 3]: 2.0 mIU/mL and 6.3 mIU/mL and 4.9 mIU/mL and 16.0 mIU/mL and 14.1 mIU/mL
- LH blood hormone level (mIU/mL) BEFORE medication intake [1, 3]: 4.3 mIU/mL and 12.0 mIU/mL (2×) and 18.0 mIU/mL and 14.6 mIU/mL
- Luteinizing hormone (LH) blood level ([1]; patient no. 1, day 10, half a syringe ganirelix acetate days 11 and 12, 150 Units FSH): 4.3 mIU/mL
- drop in LH blood hormone levels ([1]; patient no. 1, day 10 to day 12): 53.5%
- Luteinizing hormone (LH) blood level ([1]; patient no. 1, day 12, half a syringe ganirelix acetate days 11 and 12, 150 Units FSH): 2 mIU/mL
- Luteinizing hormone (LH) blood level ([1]; patient no. 2, day 11, half a syringe ganirelix acetate days 11 to 13, 75 Units FSH): 12.0 mIU/mL
- drop in LH blood hormone levels ([1]; patient no. 2, day 11 to day 13): 47.5%
- Luteinizing hormone (LH) blood level ([1]; patient no. 2, day 13, half a syringe ganirelix acetate days 11 to 13, 75 Units FSH): 6.3 mIU/mL
- Luteinizing hormone (LH) blood level ([1]; patient no. 3, day 10, one third a syringe ganirelix acetate days 11 to 13, 75 Units FSH): 12.0 mIU/mL
- drop in LH blood hormone levels ([1]; patient no. 3, day 10 to day 12): 59.25
- Luteinizing hormone (LH) blood level ([1]; patient no. 3, day 12, one third a syringe ganirelix acetate days 11 to 13, 75 Units FSH): 4.9 mIU/mL
- Luteinizing hormone (LH) blood level ([1]; patient no. 4, day 10, one third a syringe ganirelix acetate days 11 to 13, 150 Units FSH): 18.0 mIU/mL
- drop in LH blood hormone levels ([1]; patient no. 4, day 10 to day 12): 11.1%
- Luteinizing hormone (LH) blood level ([1]; patient no. 4, day 12, one third a syringe ganirelix acetate days 11 to 13, 150 Units FSH): 16.0 mIU/mL
- Luteinizing hormone (LH) blood level ([1]; patient no. 5, day 10, one third a syringe ganirelix acetate days 11 to 13, 225 Units FSH, no clomiphene citrate or letrozole): 14.6 mIU/mL
- drop in LH blood hormone levels ([1]; patient no. 5, day 10 to day 12): 3.4%
- Luteinizing hormone (LH) blood level ([1]; patient no. 5, day 12, one third a syringe ganirelix acetate days 11 to 13, 225 Units FSH, no clomiphene citrate or letrozole): 14.1 mIU/mL

Compound: COc1cccc(-c2c(C)n(Cc3c(F)cccc3C(F)(F)F)c(=O)n(C[C@H](NCCCC(=O)O)c3ccccc3)c2=O)c1F [Vaginal elagolix suppository, elagolix]
- % Drop in blood LH hormone level ([2]; Example 2, vaginal elagolix suppository 50 mg days 9 and 11, individual patients 1-5): 85.7% and 65.9% and 68.6% and 79.3% and 88.6%
- LH blood hormone level (mIU/mL) AFTER medication intake [2, 4]: 1.0 mIU/mL and 5.7 mIU/mL and 3.2 mIU/mL and 1.7 mIU/mL and 0.8 mIU/mL
- LH blood hormone level (mIU/mL) BEFORE medication intake [2, 4]: 7.0 mIU/mL and 16.7 mIU/mL and 10.2 mIU/mL and 8.2 mIU/mL and 7 mIU/mL
- Luteinizing hormone (LH) blood level ([2]; day 11): 7.0 mIU/mL
- drop in LH blood hormone levels ([2]; day 11 to day 13): 85.7%
- Luteinizing hormone (LH) blood level ([2]; day 13): 1.0 mIU/mL
